Results from US4643990A, “N-acyl peptide, processes for their preparation and pharmaceutical compositions thereof” (Fujisawa Pharmaceutical Co., Ltd., priority 1982, dated 1987).

How the values were obtained:
[1] = test system: complement serum (guinea pig complement); assay: Anticomplementary activity (inhibition of complement hemolysis of sensitized erythrocytes); type: biochemical; conditions: concentration inhibiting hemolysis of sensitized erythrocytes by 50%, 37° C., OD541
Procedure: The anticomplementary activity of the test compound was measured according to the test method as described in Experimental Immunochemistry, edited by E. A. Kabat and M. M. Mayer, 2nd ed., Springfield, III: C. C. Thomas (1961) pages 133-240.
A mixture of 1 ml of a 5-fold diluted solution of a Veronal buffer solution containing 1.5×10^-4 M Ca^2+ and 5×10^-4 M Mg^2+ and isotonic gelatin, 1.5 ml of complement serum (guinea pig complement) diluted 400 times with a physiological saline solution and 0.05 ml of a solution of a test compound (in this case, a test compound was dissolved in a physiological saline solution) was incubated at 37° C. for 30 minutes. To the said mixture there was added 0.4 ml of sensitized erythrocytes suspension containing 5×10^8 cells/ml and said mixture was incubated at 37° C. further for 60 minutes. After the incubation, the mixture was centrifuged in 3,000 rpm at 4° C. for 10 minutes.
The results are expressed in Table 1 as the concentration of each drugs inhibiting the hemolysis activity by 50% (IC50).

[2] = test system: blood clot from diluted fresh rabbit blood (urokinase, bovine thrombin); assay: Fibrinolytic activity (modified diluted whole blood clot lysis time method); type: biochemical; conditions: test compound 300 μg/ml; time for complete lysis of diluted rabbit blood clot with urokinase, 37° C.
Procedure: The enhancement of the fibrinolytic activity of the test compounds was measured according to the modified diluted whole blood clot lysis time method described in
G. R. Fearnley, G. V. Balmforth, E. Fearnley: Clin. Sci. 16, 645-650 (1957) I. S. Chohan et al: Thrombos. Diathes. Haemorrh. 33, 226 (1975) and I. M. Nilsson et al: Handbook of Experimental Pharmacology 46, 110.
Fresh rabbit blood was diluted 20 times with 1/15M phosphate buffer (pH 7.4). A mixture of 400 μl of the diluted blood solution and 50 μl of a test compound (300 μg/ml) was incubated at 37° C. for 30 minutes. To the mixture were added 50 μl of urokinase solution (100 IU/ml) and 50 μl of bovine thrombin (100 N.I.H. u/ml). The clot produced in tubes was incubated at 37° C. for various periods of time. At the end of each incubation interval (15 minutes interval), 2.5 ml of distilled water was added to lyse erythrocytes released from clotted blood and absorbance (OD541) of the supernatant separated by centrifugation (3,000 rpm for 10 minutes) from the reaction mixture was measured. The fibrinolytic activity of the test compound was determined by the time in minutes needed for the complete lysis of the blood clot.
In the absence of a test compound, it took more than 2 hours to lyse blood clot in the above condition. However, blood clot was lysed in the presence of test compounds after 15 minutes (symbol: ++) and 45 minutes (symbol: +) incubation, respectively. Samples which were incapable of lysing blood clot within 1 hour incubation were expressed as symbol (-).

SMILES | Anticomplementary activity (IC50) [1] [µg/mL] | Fibrinolytic activity [2]
CCCCCCCCCCCCCCCC(=O)OC(CCCCCCCCCCCCCCC)CC(=O)N[C@H](C(=O)N[C@@H](CCC(=O)OC)C(=O)OC)[C@@H](C)O (stereo partly drawn) [Example 43, dimethyl N-[N-(3-hexadecanoyloxyoctadecanoyl)-L-threonyl]-L-glutamate] | 30 | 
CCCCCCCCCCCCCCCC(=O)OC(CCCCCCCCCCCCCCC)CC(=O)N[C@H](C(=O)NCCS(=O)(=O)O)C(C)C (stereo partly drawn) [Example 37, N-[N-(3-hexadecanoyloxyoctadecanoyl)-L-valyl]taurine] | 0.13 | + (45 minutes (symbol: +) incubation)
CCCCCCCCCCCCCCCC(=O)OC(CCCCCCCCCCCCCCC)CC(=O)N[C@@H](CCCCN)C(=O)N[C@@H](CCC(=O)O)C(=O)O (stereo partly drawn) [Example 21, N-[N-(3-hexadecanoyloxyoctadecanoyl)-L-lysyl]-L-glutamic acid] |  | + (45 minutes (symbol: +) incubation)
CCCCCCCCCCCCCCCC(=O)OC(CCCCCCCCCCCCCCC)CC(=O)NCCCCC(=O)N[C@@H](CCC(=O)O)C(=O)O (stereo partly drawn) [Example 14, N-[N-(3-hexadecanoyloxyoctadecanoyl)-5-aminopentanoyl]-L-glutamic acid] | 0.52 | 
Br.Br.CCCCCCCCCCCCCCCC(=O)OC(CCCCCCCCCCCCCCC)CC(=O)N[C@@H](CCCCN)C(=O)N[C@@H](CCCCN)C(=O)O (stereo partly drawn) [Example 36, N-[N-(3-hexadecanoyloxyoctadecanoyl)-L-lysyl]-L-lysine dihydrogen bromide] | 9.5 | 
CCCCCCCCCCCCCCCC(=O)OC(CCCCCCCCCCCCCCC)CC(=O)N[C@@H](CCC(=O)O)C(=O)N[C@@H](CCC(=O)O)C(=O)O (stereo partly drawn) [19 (2), N-[N-(3-hexadecanoyloxyoctadecanoyl)-L-glutamyl]-L-glutamic acid] | 5.28 | 
CCCCCCCCCCCCCCCC(=O)OC(CCCCCCCCCCCCCCC)CC(=O)N[C@H](C(=O)N[C@@H](CCC(=O)O)C(=O)O)[C@@H](C)O (stereo partly drawn) [Example 8 (2), N-[N-(3-hexadecanoyloxyoctadecanoyl)-L-threonyl]-L-glutamic acid] | 0.67 | ++ (blood clot was lysed in the presence of test compounds after 15 minutes (symbol: ++))
CCCCCCCCCCCCCCCC(=O)OC(CCCCCCCCCCCCCC)C(=O)N[C@H](C(=O)N[C@@H](CCC(=O)O)C(=O)O)C(C)C (stereo partly drawn) [Example 6, N-[N-(2-hexadecanoyloxyhexadecanoyl)-L-valyl]-L-glutamic acid] | 0.49 | + (45 minutes (symbol: +) incubation)
CCCCCCCCC=CCCCCCCCC(=O)OC(CCCCCCCC=CCCCCCCCC)CC(=O)N[C@H](C(=O)N[C@@H](CCC(=O)O)C(=O)O)C(C)C (stereo partly drawn) [Example 7, N-[N-[3-(9-octadecenoyloxy)-11-eicosenoyl]-L-valyl]-L-glutamic acid] | 3.4 | + (45 minutes (symbol: +) incubation)
CCCCCCCCCCCCCCCC(=O)OC(CCCCCCCCCCCCCCC)CC(=O)NCCC(=O)N[C@@H](CC(=O)O)C(=O)O (stereo partly drawn) [Example 18, N-[N-(3-hexadecanoyloxyoctadecanoyl)-β-alanyl]-L-aspartic acid] | 0.34 | 
CCCCCCCCCCCCCCCC(=O)OC(CCCCCCCCCCCCCCC)CC(=O)N[C@@H](CCC(=O)O)C(=O)N[C@H](C(=O)O)[C@@H](C)O (stereo partly drawn) [Example 39, N-[N-(3-hexadecanoyloxyoctadecanoyl)-L-glutamyl]-L-threonine] | 1.67 | 
CCCCCCCCCCCCCCCC(=O)OC(CCCCCCCCCCCCCCC)CC(=O)N[C@H](C(=O)N[C@@H](CCC(=O)O)C(=O)O)C(C)C (stereo partly drawn) [Example 3, N-[N-(3-hexadecanoyloxyoctadecanoyl)-L-valyl]-L-glutamic acid] | 1.89 | ++ (blood clot was lysed in the presence of test compounds after 15 minutes (symbol: ++))
CCCCCCCCCCCCCCCC(=O)OC(CCCCCCCCCCCCCCC)CC(=O)NCCC(=O)N[C@H](C(=O)N[C@@H](CCC(=O)O)C(=O)O)[C@@H](C)O (stereo partly drawn) [Example 10, N-[N-[N-(3-hexadecanoyloxyoctadecanoyl)-β-alanyl]-L-threonyl]-L-glutamic acid] | 1.00 | + (45 minutes (symbol: +) incubation)
CCCCCCCCCCCCCCCC(=O)OC(CCCCCCCCCCCCCCC)CC(=O)N[C@H](C(=O)N[C@H](C(=O)O)[C@@H](C)O)[C@@H](C)O (stereo partly drawn) [Example 42, N-[N-(3-hexadecanoyloxyoctadecanoyl)-L-threonyl]-L-threonine] | 0.06 | ++ (blood clot was lysed in the presence of test compounds after 15 minutes (symbol: ++))
